Laboratory results taken from PMC7582707, “Synthesis and Properties of CurNQ for the Theranostic Application in Ovarian Cancer Intervention” (Molecules, 2020).
≈ marks a conversion by molar mass, not a printed value.

Tests used:
OVCAR-5 cells = experiment: Nuclear morphology analysis by high content imaging (eccentricity, compactness, form factor); assay type: cell-based; conditions: 24 h; for form factor of nuclei: OVCAR-5, treatment greater than 50 µM
Protocol: (§1) Cells were grown until 80% confluency prior to utilization. Upon confluency, media was removed, and cells were washed twice in sterile PBS. Trypsin/EDTA was then added to the flasks and incubated at 37 °C for 5 min, allowing the cells to detach from the bottom of the flask. These cells were then collected and centrifuged. The pellet was resuspended, and the cells were counted using the trypan blue exclusion assay. A predetermined and equal number of cells were then added into each well of a 96-well plate. The cells were incubated overnight at 37 °C and at 5% CO2, allowing the cells to attach to the plates. […] Each treatment was performed in quintuplicate. Treatments occurred for 24 h. Subsequent to this time period, media was removed, and cells were fixed with 5% formaldehyde in PBS for 20 min. Next, cells were incubated for 15 min in a 1 µg/mL solution of DAPI. The plates were then washed several times with PBS to remove all residual DAPI and to reduce background fluorescence.

OVCAR-5 = experiment: Cell viability / cytotoxicity by high content imaging (DAPI nuclei count); assay type: cell-based; conditions: for IC50: OVCAR-5, 24 h treatment
Protocol: (§2) The ovarian carcinoma cancer cell lines OVCAR-5 and SKOV3 were purchased from Fox Chase Cancer Facility, USA, Jerkitown, […]. The healthy fibroblast cell line NIH: 3T3 was utilized as a control. The cells were cultured in DMEM with the media being supplemented with 10% fetal bovine serum and 1% penicillin-streptomycin. Cells were incubated at 37 °C with 5% CO2. Upon the cells reaching 70–80% confluency, the cells were washed, and sub-cultured by harvesting using trypsin/EDTA.
as §1, with “fluorescence. All plates were stored in the dark. Plates were then run on the Logos Biosystem CELENA® X High Content Imaging System and analyses were performed using their proprietary software. IC50 values were calculated using a Prism Graph. Using the Logos Biosystem software, a pipeline was set up to determine the nuclei count, form factor, compactness and eccentricity. The following definitions were used:Eccentricity = ratio of the distance between the foci of the ellipse and its major axis length. Compactness = mean squared distance of the object’s pixels from the centroid divided by the area. Form Factor = 4 × π × Area/Perimeter2” for “fluorescence.”

SKOV3 = experiment: as above; assay type: cell-based; conditions: for IC50: Homo sapiens, SK-OV-3, SKOV3, 24 h treatment
Protocol: as §2
as §1, with “fluorescence. All plates were stored in the dark. Plates were then run on the Logos Biosystem CELENA® X High Content Imaging System and analyses were performed using their proprietary software. IC50 values were calculated using a Prism Graph. Using the Logos Biosystem software, a pipeline was set up to determine the nuclei count, form factor, compactness and eccentricity. The following definitions were used:Eccentricity = ratio of the distance between the foci of the ellipse and its major axis length. Compactness = mean squared distance of the object’s pixels from the centroid divided by the area. Form Factor = 4 × π × Area/Perimeter2” for “fluorescence.”

[1] = Cell viability / cytotoxicity by high content imaging, healthy fibroblast control; assay type: cell-based; conditions: mouse, NIH:3T3 fibroblast cells
Protocol: as §2
as §1, with “fluorescence. All plates were stored in the dark. Plates were then run on the Logos Biosystem CELENA® X High Content Imaging System and analyses were performed using their proprietary software. IC50 values were calculated using a Prism Graph. Using the Logos Biosystem software, a pipeline was set up to determine the nuclei count, form factor, compactness and eccentricity. The following definitions were used:Eccentricity = ratio of the distance between the foci of the ellipse and its major axis length. Compactness = mean squared distance of the object’s pixels from the centroid divided by the area. Form Factor = 4 × π × Area/Perimeter2” for “fluorescence.”

NIH:3T3 = experiment: as above; assay type: cell-based; conditions: Mus musculus, NIH3T3; NIH:3T3 healthy fibroblast, 24 h treatment
Protocol: as §2
as §1, with “fluorescence. All plates were stored in the dark. Plates were then run on the Logos Biosystem CELENA® X High Content Imaging System and analyses were performed using their proprietary software. IC50 values were calculated using a Prism Graph. Using the Logos Biosystem software, a pipeline was set up to determine the nuclei count, form factor, compactness and eccentricity. The following definitions were used:Eccentricity = ratio of the distance between the foci of the ellipse and its major axis length. Compactness = mean squared distance of the object’s pixels from the centroid divided by the area. Form Factor = 4 × π × Area/Perimeter2” for “fluorescence.”

[2] = Saturation solubility at different pH; assay type: physicochemical
Source text: Consequently, cancer targeting and specific release of an active agent at the tumor location is essential. Multiple tactics can be employed to achieve this. Herein, we exploited the acidification of the tumor microenvironment that accompanies malignant transformation for targeted detection and treatment. […] The slight acidification of the microenvironment surrounding a tumor is a hallmark feature of cancer and is termed the Warburg effect. Therefore, CurNQ can detect this change in pH associated with malignant transformation resulting from its pH specific solubility.
Figure 4 Fluorescence properties and pH specific properties of CurNQ. (A) Excitation and emission spectra of 1.5 µM solution of CurNQ. (B) Saturation solubility of a I.5 µM solution of CurNQ at pH 7.4 and 6.8.

Row | SMILES | form factor of nuclei (OVCAR-5 cells) | viability at 20 µM (OVCAR-5; Homo sapiens, OVCAR-5, 24 h, read-out: cell viability) | IC50 (OVCAR-5; Homo sapiens) | IC50 (SKOV3) | viability at 24 h ([1]; NIH:3T3, lowest viability reached) | IC50 (NIH:3T3) | eccentricity of nuclei (OVCAR-5 cells; OVCAR-5, 5-100 µM) | solubility ([2]; pH 6.8, aqueous buffer) | solubility ([2]; pH 7.4, aqueous buffer) | cell viability (OVCAR-5; OVCAR-5, in vitro cytotoxicity assay) | cell viability (OVCAR-5; OVCAR-5, low concentrations, 24-h incubation) | cell viability (SKOV3; SKOV3, in vitro cytotoxicity assay) | viability at 24 h, 100 µM ([1]; NIH:3T3, 100 µM)
1 | O=C1C=C(Br)C(=O)c2ccccc21 [BrNQ, 2-bromo-1,4-naphthoquinone, reference compound] | large increase | < 10% | 4.85 µM | 2.74 µM | < 15% | 6.91 µM | – | – | – | – | – | – | –
2 | COc1cc(/C=C/C(=O)CC(=O)/C=C/c2ccc(O)c(OC)c2)ccc1O [CUR, diferuloylmethane, reference compound] | – | – | 9.64 µM | 4.79 µM | – | 43.9 µM | – | – | – | – | – | – | –
3 | COc1cc(/C=C/C(=O)/C=C(O)/C=C/c2ccc(OC3=CC(=O)c4ccccc4C3=O)c(OC)c2)ccc1OC1=CC(=O)c2ccccc2C1=O [CurNQ, 2,2′-((((1E,3Z,6E)-3-hydroxy-5-oxohepta-1,3,6-triene-1,7-diyl)bis(2-methoxy-4,1-phenylene))bis(oxy))bis(naphthalene-1,4-dione)] | large increase | – | 4.05 µM | 5.35 µM | – | 65.5 µM | decreased in a dose-dependent manner | 20.7 µM (≈ 14.1 µg/mL) | 11.2 µM (≈ 7.59 µg/mL) | below 50% | below 40% | below 50% | 44%
